From US7037914B2, “Carboxylic acid derivative and a pharmaceutical composition containing the derivative as active ingredient” (Ono Pharmaceutical Co., Ltd., priority 1998, dated 2006)

Columns and labels:
[1] = target: T1, human PPAR δ (Homo sapiens, UniProt Q03181); test: Luciferase assay using human PPAR δ (Gal4-PPAR chimeric receptor in CV-1 cells); assay type: cell-based; conditions: luciferase activity with solvent containing no compound defined as 1.0
T1 construct: expressed in transfected cells; host or cells: CV-1 cells
T1 sequence (Q03181 139-441): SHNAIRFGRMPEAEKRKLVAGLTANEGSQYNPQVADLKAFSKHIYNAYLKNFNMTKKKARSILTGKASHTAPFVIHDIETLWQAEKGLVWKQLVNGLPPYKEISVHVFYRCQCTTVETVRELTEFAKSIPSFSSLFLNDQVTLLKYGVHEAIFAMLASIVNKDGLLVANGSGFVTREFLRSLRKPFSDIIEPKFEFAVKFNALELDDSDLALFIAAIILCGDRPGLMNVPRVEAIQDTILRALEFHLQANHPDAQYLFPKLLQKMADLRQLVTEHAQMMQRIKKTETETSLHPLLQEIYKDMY

[2] = target: T2, human PPAR α (Homo sapiens, UniProt Q07869); test: Luciferase assay using human PPAR α (Gal4-PPAR chimeric receptor in CV-1 cells); assay type: cell-based; conditions: compound 0.3 μM; luciferase activity of carbaprostacylin 10 μM defined as 1.0
T2 construct: expressed in transfected cells; host or cells: CV-1 cells
T2 sequence (Q07869 167-468): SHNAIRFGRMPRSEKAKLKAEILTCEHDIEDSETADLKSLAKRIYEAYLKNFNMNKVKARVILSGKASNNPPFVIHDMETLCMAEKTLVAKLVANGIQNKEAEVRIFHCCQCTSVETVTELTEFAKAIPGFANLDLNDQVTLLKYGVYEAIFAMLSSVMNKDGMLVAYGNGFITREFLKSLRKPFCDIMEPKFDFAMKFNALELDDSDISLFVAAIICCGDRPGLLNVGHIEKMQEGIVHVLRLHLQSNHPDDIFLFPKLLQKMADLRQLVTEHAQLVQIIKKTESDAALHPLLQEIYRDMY

[3] = target: T3, human PPAR γ (Homo sapiens, UniProt P37231); test: Luciferase assay using human PPAR γ (Gal4-PPAR chimeric receptor in CV-1 cells); assay type: cell-based; conditions: compound 1.0 μM; luciferase activity of troglitazone 10 μM defined as 1.0
T3 construct: expressed in transfected cells; host or cells: CV-1 cells
T3 sequence (P37231 176-477 isoform P37231-2): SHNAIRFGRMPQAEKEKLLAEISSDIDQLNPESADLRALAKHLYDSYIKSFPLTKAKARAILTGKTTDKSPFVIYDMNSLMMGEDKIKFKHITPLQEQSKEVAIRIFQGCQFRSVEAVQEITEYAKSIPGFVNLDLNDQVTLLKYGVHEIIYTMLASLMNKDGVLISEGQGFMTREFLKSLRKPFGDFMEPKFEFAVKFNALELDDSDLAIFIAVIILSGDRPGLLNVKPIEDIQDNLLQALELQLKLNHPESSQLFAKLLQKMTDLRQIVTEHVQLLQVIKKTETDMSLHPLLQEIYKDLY

[4] = tested on: KKAy/Ta mice; test: Hypoglycemic and hypolipidemic effects in KKAy mice; assay type: in vivo; conditions: 3 days, food containing 0.03 % (w/w) compound, 38.9 mg/kg/day (converted)
From the text: Hypoglycemic and hypolipidemic effects in KKAy mice:
Male, 7-weeks old KKAy/Ta mice weighed from […] (seven mice per group) were pre-breaded for approximately one week and acclimatized for three days on milled diet. On the first day of the experiment (Day 0), mice were divided into some groups by weight, plasma glucose and triglyceride (TG) levels to minimize the differences among groups. From the next day for two days they were given compounds by food mixture containing 0.03 % (w/w) of the compound of the present invention or by milled diet only. At 13:00 of the third day, blood samples were collected and glucose and TG were measured. Additionally, there was no significant difference in the food intake between control group (milled diet only) and compounds-treated group (milled diet containing 0.03 % compounds).

[5] = tested on: SD rats; test: Hypocholesterolemic and hypolipidemic effects in normal rats; assay type: in vivo; conditions: 10 mg/kg orally, hypercholesterolemic food, blood sampled next day
From the text: Hypocholesterolemic and hypolipidemic effects in normal rats:
Male, six-weeks old SD rats (seven rats per group) were left to take milled diet and water ad libitum and were acclimatized for 1 week.
At 9:00 on the first day of the experiment (Day 0) blood sampling was done from tail vein. The rats were divided into some groups by body weight, triglyceride(TG), non-esterified fatty acid (NEFA), total cholesterol (TC) values to minimize differences of the parameters among the groups. At 17:00 of the day the compound of the present invention suspended in 0.5% aqueous solution of carboxymethylcellulose (CMC) was orally administered at a dose of 10 mg/kg, and thereafter, with hypercholesterolemic food (5.5% peanut oil, 1.5% cholesterol and 0.5% cholic acid were mixed with milled CRF-1 diet, Charles River Inc.) was given to the rats.
At 9:00 of the next day, blood sampling was done from tail vein. The lipid values in blood (TG, NEFA and TC values) were measured.
There was no significant difference of the food intake between the control group (provided only 0.5% CMC) and the group treated with the compounds of the present invention.

Row | SMILES | PPAR δ agonist activity, relative activity ([1]; concentration 1.0 μM) | PPAR δ agonist activity, relative activity ([1]; concentration 10.0 μM) | PPAR α agonist activity, Relative Activity [2] | also measured
1 | Cc1oc(-c2ccccc2)nc1CCOc1cccc(CC(=O)O)c1 [Example 2 (22)] | 9.3 | 66.7 |  | 
2 | O=C(O)CSCc1cccc(OCc2ccc(-c3ccccc3)cc2)c1 [Example 2 (11), 2-(3-(biphenyl-4-ylmethoxy)phenylmethylthio)acetic acid] |  |  | 3.2 | 
3 | Cc1oc(-c2ccc3c(c2)OCO3)nc1CCOc1cccc(CC(=O)O)c1 [Example 2 (93), 2-(3-(2-(5-methyl-2-(1,3-dioxaindan-5-yl)oxazol-4-yl)ethoxy)phenyl)acetic acid] | 36.1 | 54.7 |  | 
4 | Cc1oc(-c2ccccc2)nc1CCOc1cccc(CCCC(=O)O)c1 [Example 2 (5), 4-(3-(2-(5-methyl-2-phenyloxazol-4-yl)ethoxy)phenyl)butanoic acid] |  |  | 0.8 | 
5 | Cc1oc(-c2ccccc2)nc1CCOc1cccc(CSCC(=O)O)c1 [Example 2 (12), 2-(3-(2-(5-methyl-2-phenyloxazol-4-yl)ethoxy)phenylmethylthio)acetic acid] |  |  | 1.7 | PPAR γ agonist activity, Relative Activity [3]: 1.4; glycemic value ([4]; control 495 ± 35): 214 ± 19 mg/dL; TG value ([4]; control 558 ± 107): 221 ± 66 mg/dL; TG value ([5]; control 147 ± 9): 100 ± 14 mg/dL; TC value ([5]; control 188 ± 5): 70 ± 5 mg/dL; NEFA value ([5]; control 489 ± 66): 178 ± 14 μEq/l
